Results published in patent publication US20210395262A1, “INHIBITORS OF HUMAN IMMUNODEFICIENCY VIRUS REPLICATION” (ViiV HEALTHCARE UK (NO.5) LIMITED, priority 2018, published 2021).
Like-named read-outs stand apart in the source and are kept apart here.

Assays:
Format in all cases: cell-based
recombinant NL4-3 virus = experiment: HIV cell culture assay (antiviral activity, luciferase readout in MT-2 cells)
Method in brief: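 MT-2 cells infected for 4-5 days with NL4-3 reference virus carrying Renilla luciferase in place of part of nef, in presence of serial compound dilutions. Luciferase activity read with live-cell substrate. EC50 derived from median effect equation, slope parameter m.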

uninfected MT2 cells = experiment: Compound cytotoxicity, XTT-based colorimetric assay; settings: uninfected MT2 cells, day 4, XTT
Method in brief: (§1)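 Run under the antiviral-assay protocol but without virus. Viability was read on day 4 and CC50 values were derived from the readout.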

[1] = as above; settings: human; uninfected MT2 cells, day 4, XTT; read-out: CC50
Method in brief: as §1

[2] = Human immunodeficiency virus 1, NL43, MT2

Molecule `C[C@@H]1CN(c2ccc3c(=O)n(-c4ccc(Cl)c5c(NS(C)(=O)=O)nn(CC(F)F)c45)c([C@H](Cc4cc(F)cc(F)c4)NC(=O)Cn4nc(C(F)F)c5c4C(F)(F)[C@@H]4C[C@H]54)nc3c2)C[C@H](C)O1` [Example 8, N—((S)-1-((3P)-3-(4-chloro-1-(2,2-difluoroethyl)-3-(methylsulfonamido)-1H-indazol-7-yl)-7-((2S,6R)-2,6-dimethylmorpholino)-4-oxo-3,4-dihydroquinazolin-2-yl)-2-(3,5-difluorophenyl)ethyl)-2-((3bS,4aR)-3-(difluoromethyl)-5,5-difluoro-3b,4,4a,5-tetrahydro-1H-cyclopropa[3,4]cyclopenta[1,2-c]pyrazol-1-yl)acetamide] has an EC50 (recombinant NL4-3 virus; MT-2 cells infected for 4-5 days with recombinant NL4-3 virus carrying Renilla luciferase, luciferase activity, read-out: EC50) of 0.093 nM and a CC50 (uninfected MT2 cells) of over 500 nM.
`COC[C@@H]1CCCN1c1ccc2c(=O)n(-c3ccc(Cl)c4c(NS(C)(=O)=O)nn(C)c34)c([C@H](Cc3cc(F)cc(F)c3)NC(=O)Cn3nc(C(F)F)c4c3C(F)(F)[C@@H]3C[C@H]43)nc2c1` (atropisomer, axis not shown; (P)) [Example 3, N—((S)-1-((3P)-3-(4-chloro-1-methyl-3-(methylsulfonamido)-1H-indazol-7-yl)-7-((S)-2-(methoxymethyl)pyrrolidin-1-yl)-4-oxo-3,4-dihydroquinazolin-2-yl)-2-(3,5-difluorophenyl)ethyl)-2-((3bS,4aR)-3-(difluoromethyl)-5,5-difluoro-3b,4,4a,5-tetrahydro-1H-cyclopropa[3,4]cyclopenta[1,2-c]pyrazol-1-yl)acetamide] showed an EC50 (recombinant NL4-3 virus; [2]) of 0.175 nM and a CC50 at 4 days [1] of over 500 nM.
`CCS(=O)(=O)Nc1nn(C)c2c(-n3c([C@H](Cc4cc(F)cc(F)c4)NC(=O)Cn4nc(C(F)F)c5c4C(F)(F)[C@@H]4C[C@H]54)nc4cc(N5CCOCC5)ccc4c3=O)ccc(Cl)c12` (atropisomer, axis not shown; (P)) [Example 65, N—((S)-1-((3P)-3-(4-chloro-3-(ethylsulfonamido)-1-methyl-1H-indazol-7-yl)-7-morpholino-4-oxo-3,4-dihydroquinazolin-2-yl)-2-(3,5-difluorophenyl)ethyl)-2-((3bS,4aR)-3-(difluoromethyl)-5,5-difluoro-3b,4,4a,5-tetrahydro-1H-cyclopropa[3,4]cyclopenta[1,2-c]pyrazol-1-yl)acetamide] showed an EC50 (recombinant NL4-3 virus; [2]) of 0.051 nM and a CC50 at 4 days [1] of over 500 nM.
